Results from patent publication US20250326771A1, “PIPERAZINE DERIVATIVES USEFUL IN HIV THERAPY” (VIIV HEALTHCARE COMPANY, priority 2022, published 2025).
Where two headings read alike, the source gives them in different places.

Legend:
cell-associated HIV RNA = settings: primary cells / resting CD4+ T cells; cited from earlier work
[1] = system: Jurkat HIV-luciferase clones; settings: HIV latency reversal studies; cited from earlier work
p100/p52 = settings: cited from earlier work
cIAP2-BIR2 = cIAP2-BIR2 (Homo sapiens (Human), UniProt Q13489); assay: BIR binding assay (FRET competition), cIAP2 BIR2
Outline: (§1)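 His-tagged domains (50 nM cIAP1-BIR3, 325 nM cIAP2-BIR2, 325 nM cIAP1-BIR2, 100 nM XIAP-BIR3) compete with compounds for a 200 nM AlexaFluor647-labelled SMAC/DIABLO peptide in HEPES buffer, pH 7.4, for 60 min. Then 2 nM Eu-W1024 is added for 30 min. The 615/665 nm ratio is fit by four-parameter fit to give IC50.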

cIAP1-BIR3 = cIAP1-BIR3 (Homo sapiens (Human), UniProt Q13490); assay: BIR binding assay (FRET competition), cIAP1 BIR3; settings: for cIAP1 BIR3 vs BIR2 separation window: fold separation (FS) for cIAP1
Outline: as §1

cIAP2-BIR3 = cIAP2-BIR3 (Homo sapiens (Human), UniProt Q13489); assay: BIR binding assay (FRET competition), cIAP2 BIR3; settings: for cIAP2 BIR3 vs BIR2 separation window: fold separation (FS) for cIAP2
XIAP-BIR3 = XIAP-BIR3 (Homo sapiens (Human), UniProt P98170); assay: BIR binding assay (FRET competition), XIAP BIR3; settings: for XIAP BIR3 vs BIR2 separation window: fold separation (FS) for XIAP
Outline: as §1

XIAP-BIR2 = XIAP-BIR2 (Homo sapiens (Human), UniProt P98170); assay: BIR binding assay (FRET competition), XIAP BIR2
Outline: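 Compounds in a 15-point, 3-fold series competed with an AlexaFluor647 SMAC peptide (AVPIAQKSE, 200 nM) for 200 nM His-tagged XIAP-BIR2 over 60 min in pH 7.4 HEPES/CHAPS/DTT buffer. Eu-W1024 (2 nM) was then added for 30 min. IC50 and pIC50 were derived from the 615 nm/665 nm emission ratio by variable-slope fit.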

[2] = system: Jurkat HIV-luciferase clones; assay: Jurkat latency reversal assay; assay type: cell-based; settings: Homo sapiens, 48 h; Jurkat latency reversal assay potency; read-out: Jurkat pEC50 (converted)
Outline: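 Three pooled Jurkat reporter clones, each with one or two integrated HIV-luciferase proviruses, 5,000 cells/well; duplicate 14-point titrations starting at 10 μM; 48 h, 37° C, then Steady-Glo luminescence; four-parameter logistic analysis yields EC50 and percent maximal activation against DMSO vehicle.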

cIAP1-BIR2 = cIAP1-BIR2 (Homo sapiens (Human), UniProt Q13490); assay: BIR binding assay (FRET competition), cIAP1 BIR2
Outline: as §1

Sequence of cIAP2-BIR2 (Q13489 158-242): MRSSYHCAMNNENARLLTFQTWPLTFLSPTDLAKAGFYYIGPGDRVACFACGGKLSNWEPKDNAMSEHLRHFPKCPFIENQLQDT
Sequence of cIAP2-BIR3 (Q13489 238-349): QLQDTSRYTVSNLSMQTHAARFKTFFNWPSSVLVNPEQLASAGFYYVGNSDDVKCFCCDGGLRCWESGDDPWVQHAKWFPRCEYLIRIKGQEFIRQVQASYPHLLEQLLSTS
Sequence of cIAP1-BIR3 (Q13490 253-363): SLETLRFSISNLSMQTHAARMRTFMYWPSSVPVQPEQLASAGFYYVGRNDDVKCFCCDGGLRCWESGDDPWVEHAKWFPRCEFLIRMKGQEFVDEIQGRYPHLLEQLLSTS
Sequence of XIAP-BIR3 (P98170 241-356): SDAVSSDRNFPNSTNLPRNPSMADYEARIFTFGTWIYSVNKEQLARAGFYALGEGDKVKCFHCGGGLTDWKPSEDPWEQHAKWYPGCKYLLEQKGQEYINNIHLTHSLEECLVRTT
Sequence of cIAP1-BIR2 (Q13490 173-257): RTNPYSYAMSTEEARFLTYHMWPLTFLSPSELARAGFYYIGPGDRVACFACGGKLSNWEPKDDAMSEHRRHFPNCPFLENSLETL
Sequence of XIAP-BIR2 (P98170 124-240): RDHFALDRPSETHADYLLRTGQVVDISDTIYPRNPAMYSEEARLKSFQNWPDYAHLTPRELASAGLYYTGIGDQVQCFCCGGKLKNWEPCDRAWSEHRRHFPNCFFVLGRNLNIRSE

Row | Structure (SMILES) | HIV caRNA induction (cell-associated HIV RNA) | potency in Jurkat [1] | p100-p52 conversion (p100/p52) | IC50 (cIAP2-BIR2) [nM] | IC50 (cIAP1-BIR3) [nM] | cIAP1 BIR3 vs BIR2 separation window (cIAP1-BIR3) | IC50 (cIAP2-BIR3) [nM] | cIAP2 BIR3 vs BIR2 separation window (cIAP2-BIR3) | IC50 (XIAP-BIR3) [nM] | XIAP BIR3 vs BIR2 separation window (XIAP-BIR3) | IC50 (XIAP-BIR2) [nM] | EC50 [2] [nM] | IC50 (cIAP1-BIR2) [nM] | IC50 (XIAP-BIR2; FRET competition binding, read-out: XIAP BIR2 (pIC50) (converted)) [nM] | cIAP2 BIR3 (pIC50) (cIAP2-BIR3; FRET competition binding) | XIAP BIR2 (pIC50) (XIAP-BIR2; FRET competition binding)
1 | CN[C@@H](C)C(=O)N[C@H](C(=O)N1CCC[C@H]1C(=O)N[C@H]1c2ccccc2C[C@H]1OCC#CC#CCO[C@@H]1Cc2ccccc2[C@@H]1NC(=O)[C@@H]1CCCN1C(=O)[C@@H](NC(=O)[C@H](C)NC)C1CCCCC1)C1CCCCC1 [AZD5582] | increase in cell-associated HIV RNA expression | – | – | – | – | – | – | – | – | – | – | – | – | – | – | –
2 | CC[C@H](NC(=O)[C@H](C)NC)C(=O)N1C[C@@H](O)C[C@H]1Cc1c(-c2[nH]c3cc(F)ccc3c2C[C@@H]2C[C@H](O)CN2C(=O)[C@H](CC)NC(=O)[C@H](C)NC)[nH]c2cc(F)ccc12 [Birinapant TL32711, Birinapant] | not potent | not potent | not potent | – | – | – | – | – | – | – | – | – | – | – | – | –
3 | C[C@@H]1CN(CC(=O)N2CC(C)(C)c3[nH]c(=O)c(Cc4ccc(F)cc4)cc32)[C@@H](CN2CCO[C@H](C(=O)N3CCN(C(=O)[C@@H]4CN(C[C@H]5CN[C@H](C)CN5CC(=O)N5CC(C)(C)c6[nH]c(=O)c(Cc7ccc(F)cc7)cc65)CCO4)CC3)C2)CN1 [Example 118, 1,1′-(2,2′-((3R,3′R,6R,6′R)-(((2S,2'S)-(piperazine-1,4-dicarbonyl)bis(morpholine-2,4-diyl))bis(methylene))bis(3-methylpiperazine-6,1-diyl))bis(acetyl))bis(6-(4-fluorobenzyl)-3,3-dimethyl-1,2,3,4-tetrahydro-5H-pyrrolo[3,2-b]pyridin-5-one)] | – | – | – | 1000 to 3160 | 7.94 to 15.8 | +++ (10,000>FS>1,000) | 7.94 to 15.8 | +++ (10,000>FS>1,000) | 7.94 to 15.8 | ++++ (FS>10,000) | 10000 to 51300 | 12.6 to 63.1 | 1000 to 3160 | – | – | –
4 | C[C@@H]1CN(CC(=O)N2CC(C)(C)c3[nH]c(=O)c(Cc4ccc(F)cc4)cc32)[C@@H](CN2CCN(C(=O)COc3cccc(OCC(=O)N4CCN(C[C@H]5CN[C@H](C)CN5CC(=O)N5CC(C)(C)c6[nH]c(=O)c(Cc7ccc(F)cc7)cc65)[C@H](C)C4)c3)C[C@H]2C)CN1 [Example 11, 1,1′-(2,2′-((3R,3′R,6R,6′R)-(((2R,2′R)-(2,2′-(1,3-phenylenebis(oxy))bis(acetyl))bis(2-methylpiperazine-4,1-diyl))bis(methylene))bis(3-methylpiperazine-6,1-diyl))bis(acetyl))bis(6-(4-fluorobenzyl)-3,3-dimethyl-1,2,3,4-tetrahydro-5H-pyrrolo[3,2-b]pyridin-5-one)] | – | – | – | 1000 to 3160 | 15.8 to 31.6 | ++ (1,000>FS>100) | 15.8 to 31.6 | ++ (1,000>FS>100) | 31.6 to 501 | ++++ (FS>10,000) | – | 63.1 to 316 | 1000 to 3160 | 10000 to 51300 | – | –
5 | C[C@@H]1CN(CC(=O)N2CC(C)(C)c3[nH]c(=O)c(Cc4ccc(F)cc4)cc32)[C@@H](CN2CCC[C@H](NC(=O)Cc3ccc(CC(=O)N[C@H]4CCCN(C[C@H]5CN[C@H](C)CN5CC(=O)N5CC(C)(C)c6[nH]c(=O)c(Cc7ccc(F)cc7)cc65)C4)cc3)C2)CN1 [Example 42, 2,2′-(1,4-phenylene)bis(N-((S)-1-(((2R,5R)-1-(2-(6-(4-fluorobenzyl)-3,3-dimethyl-5-oxo-2,3,4,5-tetrahydro-1H-pyrrolo[3,2-b]pyridin-1-yl)-2-oxoethyl)-5-methylpiperazin-2-yl)methyl)piperidin-3-yl)acetamide)] | – | – | – | 3160 to 10000 | 31.6 to 501 | ++ (1,000>FS>100) | – | +++ (10,000>FS>1,000) | 31.6 to 501 | +++ (10,000>FS>1,000) | – | 316 to 3310 | 3160 to 10000 | – | ++ (7.80>pIC50>=7.50) | + (4.29<pIC50<=5.00)
